What was measured:
[1] = tested on: NCI-N87 mouse xenograft tumor; assay: In vivo efficacy, NCI-N87 mouse xenograft tumor; parameters: species or system BALB/c nude mice; settings: Table 14, BIW*6, 3 mg/kg
[2] = tested on: human breast cancer BR-05-0028 model; assay: In vivo efficacy, human breast cancer BR-05-0028 mouse xenograft tumor; parameters: species or system BALB/c nude mice
Description: II. The tumor diameter was measured with a vernier caliper and the tumor volume was calculated according to the formula V=0.5a×b^2 (where a is the longest diameter of the tumor and b is the shortest diameter of the tumor). […] Animals in each group were administered by tail vein injection, and the control group was given an equal volume of vehicle. […] T/C and TGI values were calculated using tumor volume. The calculation formula is as follows: T/C %=TRTV/CRTV×100% (TRTV: RTV of the treatment group; CRTV: RTV of the vehicle control group). The relative tumor volume (RTV) was calculated based on the results of tumor measurement, and the calculation formula was RTV=Vt/V0, where V0 was the average tumor volume measured at the time of grouping (i.e., D0), Vt was the average tumor volume at one measurement, and TRTV and CRTV took the same day of data.
The human breast cancer BR-05-0028 model (IHC 3±) was derived from tumor samples resected in clinical surgery. The tumor samples were inoculated into nude mice at the P0 generation, and the tumor tissue used in this example was the P5 generation. Tumor tissue with a volume of about 30 mm^3 was subcutaneously inoculated into the right back dorsum of SPF female BALB/c nude mice aged 6-8 weeks.

[3] = tested on: MDA-MB-468 mouse xenograft tumor; assay: In vivo efficacy, MDA-MB-468 mouse xenograft tumor; parameters: species or system BALB/c Nude mice; settings: 4.5 mg/kg, intravenously
Description: The MDA-MB-468 tumor cells (ATCC, HTB-132) were maintained in vitro as a monolayer culture in L-15 medium supplemented with 10% fetal bovine serum and 1% Antibiotic-Antimycotic at 37° C. in an atmosphere of 0% CO2 in air. The cells growing in an exponential growth phase will be harvested and counted for tumor inoculation. For in vivo anti-tumor efficacy study, 10×10^6 MDA-MB-468 human breast cancer cells (Trop2 positive) in 0.2 mL of PBS with Matrigel (1:1) were inoculated subcutaneously in the right flank in BALB/c Nude mice. […] The tumor volume was measured twice weekly with a caliper. T/C and TGI values were calculated using tumor volume.

[4] = Table 15, BIW*6, 5 mg/kg, Day 21

Trodelvy
Tumor volume (mm^3) Day 32 [1]: 864 ± 114 mm^3 | T/C (%) ([1]; Day 32): 65.85% | TGI (%) ([1]; Day 32): 41.10% | Tumor volume (mm^3) Day 0 ([1]; baseline at grouping): 227 ± 21 mm^3 | Tumor volume (mm^3) Day 21 ([2]; Table 15, BIW*6, 5 mg/kg): 5 ± 2 mm^3 | T/C (%) [2, 4]: 0.35% | TGI (%) [2, 4]: 111.76% | Tumor volume (mm^3) Day 0 ([2]; Table 15, BIW*6, 5 mg/kg, baseline at grouping): 171 ± 29 mm^3 | tumor growth inhibition (in words) ([2]; effect example 3.1.3, 5 mg/kg (ADC-1 also 10 mg/kg), after 21 days): able to significantly inhibit tumor growth | Tumor volume (mm^3) on day 35 [3]: 535 ± 60 mm^3 | T/C (%) ([3]; day 35): 78.73% | TGI (%) ([3]; day 35): 29.24%
